Residues, ends and D or L forms follow the SMILES beside them.
experiment: Solubility limit in water (gradual water addition, vortex, light microscopy); settings: not given

Structure (SMILES)	solubility [mg/mL]
N[C@@H](Cc1ccccc1)C(=O)N[C@@H](Cc1ccccc1)C(=O)N[C@@H](Cc1ccccc1)C(=O)O [FFF, reference compound] (H-Phe-Phe-Phe-OH)	< 1
N[C@@H](Cc1ccccc1)C(=O)N[C@@H](Cc1ccccc1)C(=O)N[C@@H](Cc1ccc(O)cc1)C(=O)O [FFY] (H-Phe-Phe-Tyr-OH)	> 250
N[C@@H](Cc1ccccc1)C(=O)N[C@@H](Cc1ccc(O)cc1)C(=O)N[C@@H](Cc1ccccc1)C(=O)O [FYF, reference compound] (H-Phe-Tyr-Phe-OH)	< 5
N[C@@H](Cc1ccccc1)C(=O)N[C@@H](Cc1ccc(O)cc1)C(=O)N[C@@H](Cc1ccc(O)cc1)C(=O)O [FYY] (H-Phe-Tyr-Tyr-OH)	> 1000
N[C@@H](Cc1ccccc1)C(=O)N[C@@H](Cc1ccc(O)cc1)C(=O)O [FY] (H-Phe-Tyr-OH)	> 1000
N[C@@H](Cc1ccc(O)cc1)C(=O)N[C@@H](Cc1ccccc1)C(=O)N[C@@H](Cc1ccccc1)C(=O)O [YFF] (H-Tyr-Phe-Phe-OH)	> 250
N[C@@H](Cc1ccc(O)cc1)C(=O)N[C@@H](Cc1ccccc1)C(=O)N[C@@H](Cc1ccc(O)cc1)C(=O)O [YFY] (H-Tyr-Phe-Tyr-OH)	> 1000
N[C@@H](Cc1ccc(O)cc1)C(=O)N[C@@H](Cc1ccc(O)cc1)C(=O)N[C@@H](Cc1ccccc1)C(=O)O [YYF] (H-Tyr-Tyr-Phe-OH)	> 1000
N[C@@H](Cc1ccc(O)cc1)C(=O)N[C@@H](Cc1ccc(O)cc1)C(=O)N[C@@H](Cc1ccc(O)cc1)C(=O)O [YYY, Tyr-Tyr-Tyr] (H-Tyr-Tyr-Tyr-OH)	> 1000

experiment: physchem; settings: water
Procedure: Each amino acid or peptide was weighed. Water was gradually added at room temperature and the solution was vortexed. After each addition of water, the solution was sampled and evaluated under light microscopy; this process was repeated until no visible particles were detected and the concentration was calculated and determined as the solubility limit of the peptide in water.

Structure (SMILES)	solubility [mg/mL]
N[C@@H](Cc1ccc(O)cc1)C(=O)N[C@@H](Cc1ccccc1)C(=O)O [YF] (H-Tyr-Phe-OH)	> 1000
N[C@@H](Cc1ccc(O)cc1)C(=O)N[C@@H](Cc1ccc(O)cc1)C(=O)O [YY] (H-Tyr-Tyr-OH)	> 1000

experiment: not given; settings: in water; marked (literature); cited from earlier work

Structure (SMILES)	solubility
N[C@@H](Cc1ccccc1)C(=O)O [F, phenylalanine]	29.6 (literature) milligram/milliliter

— US20260109870A1, “PEPTIDE-BASED NON-CRYSTALLINE MATERIALS AND COMPOSITIONS AND PROCESSES FOR OBTAINING SAME” (Ramot at Tel-Aviv University Ltd., priority 2022, published 2026)
